Data taken from PubChem BioAssay AID248 (DTP/NCI, 2004).
Values joined by “and” are separate entries in the source; they are usually repeats but may differ in a detail not shown here. Equal entries are not always repeated. Inconclusive results and toxic doses are left out. Cut-off read from the data, not from the text of the source: active = T/C of 150% or more; inactive = T/C below 125%.

Test system: L1210 leukemia ip in BDF1 mice, survival T/C
Experiment: NCI In Vivo Anticancer Drug Screen. Data for tumor model L1210 Leukemia (intraperitoneal) in B6D2F1 (BDF1) mice
Details: endpoint: mean survival time, higher = longer survival
Outline: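 Each compound was tested against a transplantable tumor grown in mice. The endpoint was survival, with treated animals benchmarked against vehicle controls as a simple ratio.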

[1] = dose: 50.0 mg/kg/injection, schedule: Q01DX009 (ip), vehicle: saline with Tween-80
[2] = dose: 100.0 mg/kg/injection, schedule: Q01DX009 (ip), vehicle: saline with Tween-80
[3] = dose: 200.0 mg/kg/injection, schedule: Q01DX009 (ip), vehicle: saline with Tween-80
[4] = dose: 400.0 mg/kg/injection, schedule: Q01DX009 (ip), vehicle: saline with Tween-80
[5] = dose: 100.0 mg/kg/injection, schedule: Q01DX001 (ip), vehicle: saline
[6] = dose: 100.0 mg/kg/injection, schedule: Q04DX003 (ip), vehicle: Klucel (hydroxypropylcellulose) (HPC)
[7] = dose: 200.0 mg/kg/injection, schedule: Q01DX001 (ip), vehicle: saline
[8] = dose: 200.0 mg/kg/injection, schedule: Q04DX003 (ip), vehicle: Klucel (hydroxypropylcellulose) (HPC)
[9] = dose: 400.0 mg/kg/injection, schedule: Q01DX001 (ip), vehicle: saline
[10] = dose: 400.0 mg/kg/injection, schedule: Q04DX003 (ip), vehicle: Klucel (hydroxypropylcellulose) (HPC)
[11] = dose: 100.0 mg/kg/injection, schedule: Q01DX009 (ip), vehicle: Klucel (hydroxypropylcellulose) (HPC)
[12] = dose: 200.0 mg/kg/injection, schedule: Q01DX009 (ip), vehicle: Klucel (hydroxypropylcellulose) (HPC)
[13] = dose: 100.0 mg/kg/injection, schedule: Q01DX001 (ip), vehicle: carboxymethylcellulose (CMC)
[14] = dose: 200.0 mg/kg/injection, schedule: Q01DX001 (ip), vehicle: carboxymethylcellulose (CMC)
[15] = dose: 100.0 mg/kg/injection, schedule: Q04DX002 (ip), vehicle: saline with Tween-80
[16] = dose: 200.0 mg/kg/injection, schedule: Q04DX002 (ip), vehicle: saline with Tween-80
[17] = dose: 400.0 mg/kg/injection, schedule: Q04DX002 (ip), vehicle: saline with Tween-80

Measured: T/C

CCCCCCCCCCCCCCCCCc1nc2nc(Cl)c(Cl)nc2[nH]1
inactive: [1] 91 % of control | [2] 91 % of control | dose: 100.0 mg/kg/injection, schedule: Q04DX003 (ip), vehicle: saline with Tween-80 98 % of control and 89 % of control | [3] 91 % of control | dose: 200.0 mg/kg/injection, schedule: Q04DX003 (ip), vehicle: saline with Tween-80 96 % of control | [4] 93 % of control | dose: 400.0 mg/kg/injection, schedule: Q04DX003 (ip), vehicle: saline with Tween-80 94 % of control and 90 % of control

O=c1n(-c2ccccc2)c(=O)n(-c2ccccc2)c(=O)n1-c1ccccc1
inactive: [5] 107 % of control | [6] 89 % of control | [7] 102 % of control | [8] 94 % of control | [9] 115 % of control | [10] 104 % of control

COc1cc2c(cc1OC(C)=O)C(OC(C)=O)CCCC2 (stereo not given)
inactive: dose: 5.0 mg/kg/injection, schedule: Q01DX001 (ip), vehicle: saline 109 % of control | dose: 10.0 mg/kg/injection, schedule: Q01DX001 (ip), vehicle: saline 109 % of control | dose: 20.0 mg/kg/injection, schedule: Q01DX001 (ip), vehicle: saline 97 % of control | dose: 40.0 mg/kg/injection, schedule: Q01DX001 (ip), vehicle: saline 105 % of control

CC1c2ccccc2C(C)c2c1cc(F)c1ccccc21 (stereo not given)
inactive: dose: 100.0 mg/kg/injection, schedule: Q04DX002 (ip), vehicle: other 115 % of control | dose: 200.0 mg/kg/injection, schedule: Q04DX002 (ip), vehicle: other 93 % of control | dose: 400.0 mg/kg/injection, schedule: Q04DX002 (ip), vehicle: other 101 % of control

O=c1cc(NCCc2ccccc2)[nH]c(=O)[nH]1
inactive: dose: 100.0 mg/kg/injection, schedule: Q01DX001 (ip), vehicle: Klucel (hydroxypropylcellulose) (HPC) 93 % of control | dose: 200.0 mg/kg/injection, schedule: Q01DX001 (ip), vehicle: Klucel (hydroxypropylcellulose) (HPC) 95 % of control | dose: 400.0 mg/kg/injection, schedule: Q01DX001 (ip), vehicle: Klucel (hydroxypropylcellulose) (HPC) 105 % of control

CC(=O)Nc1cc([As](=O)(O)O)ccc1O
inactive: dose: 50.0 mg/kg/injection, schedule: Q01DX009 (ip), vehicle: Klucel (hydroxypropylcellulose) (HPC) 105 % of control | [11] 102 % of control | [12] 97 % of control

O=C(O)c1ccccc1CC(O)(c1ccccc1)C(O)(Cc1ccccc1C(=O)O)c1ccccc1 (stereo not given)
inactive: [13] 94 % of control | [14] 102 % of control | dose: 400.0 mg/kg/injection, schedule: Q01DX001 (ip), vehicle: carboxymethylcellulose (CMC) 96 % of control

O=C(CCCCCCCCC(=O)N/N=C/c1ccc(O)cc1)N/N=C/c1ccc(O)cc1
inactive: dose: 100.0 mg/kg/injection, schedule: Q01DX001 (ip), vehicle: saline with Tween-80 90 % of control | [2] 89 % of control and 92 % of control | [15] 97 % of control and 100 % of control | dose: 100.0 mg/kg/injection, schedule: Q04DX003 (ip), vehicle: saline 97 % of control | dose: 200.0 mg/kg/injection, schedule: Q01DX001 (ip), vehicle: saline with Tween-80 92 % of control | [3] 100 % of control and 87 % of control | [16] 95 % of control and 97 % of control | dose: 200.0 mg/kg/injection, schedule: Q04DX003 (ip), vehicle: saline 92 % of control | dose: 400.0 mg/kg/injection, schedule: Q01DX001 (ip), vehicle: saline with Tween-80 95 % of control | [4] 101 % of control and 87 % of control | [17] 94 % of control and 92 % of control | dose: 400.0 mg/kg/injection, schedule: Q04DX003 (ip), vehicle: saline 88 % of control

O=C1OC(c2c3ccccc3cc3ccccc23)c2ccccc21 (stereo not given)
inactive: [1] 98 % of control | [2] 98 % of control | [3] 95 % of control

CCCCC(CC)CNCCOC(=O)c1ccc(N)cc1 (stereo not given)
inactive: dose: 75.0 mg/kg/injection, schedule: Q01DX001 (ip), vehicle: other 92 % of control | dose: 150.0 mg/kg/injection, schedule: Q01DX001 (ip), vehicle: other 100 % of control

COc1cc(C(=O)NNC(=O)c2cccc(C)c2)cc(OC)c1OC
inactive: [11] 100 % of control | [12] 95 % of control | dose: 400.0 mg/kg/injection, schedule: Q01DX009 (ip), vehicle: Klucel (hydroxypropylcellulose) (HPC) 105 % of control

CCSC(=O)OCn1ncc2cc([N+](=O)[O-])ccc21
inactive: [5] 112 % of control | [7] 91 % of control | [9] 103 % of control

C1CCC2CC(NC3=NCCO3)CCC2C1 (stereo not given)
inactive: dose: 0.19 mg/kg/injection, schedule: Q01DX009 (ip), vehicle: Klucel (hydroxypropylcellulose) (HPC) 96 % of control | dose: 0.39 mg/kg/injection, schedule: Q01DX009 (ip), vehicle: Klucel (hydroxypropylcellulose) (HPC) 98 % of control | dose: 0.78 mg/kg/injection, schedule: Q01DX009 (ip), vehicle: Klucel (hydroxypropylcellulose) (HPC) 98 % of control and 113 % of control

O=[N+]([O-])c1ccc(N/N=C/c2ccccc2)cc1
inactive: dose: 15.0 mg/kg/injection, schedule: Q01DX Z (ip), vehicle: carboxymethylcellulose (CMC) 91 % of control | dose: 30.0 mg/kg/injection, schedule: Q01DX Z (ip), vehicle: carboxymethylcellulose (CMC) 100 % of control | dose: 60.0 mg/kg/injection, schedule: Q01DX Z (ip), vehicle: carboxymethylcellulose (CMC) 94 % of control and 100 % of control | dose: 120.0 mg/kg/injection, schedule: Q01DX Z (ip), vehicle: carboxymethylcellulose (CMC) 94 % of control and 97 % of control | dose: 240.0 mg/kg/injection, schedule: Q01DX Z (ip), vehicle: carboxymethylcellulose (CMC) 97 % of control | dose: 480.0 mg/kg/injection, schedule: Q01DX Z (ip), vehicle: carboxymethylcellulose (CMC) 100 % of control

c1ccn2nnc(-c3nnn4ccccc34)c2c1
inactive: [15] 102 % of control | [16] 95 % of control | [17] 91 % of control

OC(c1cc(-c2cccc(Cl)c2)nc2ccccc12)C1CCCCN1 (stereo not given)
inactive: dose: 50.0 mg/kg/injection, schedule: Q01DX001 (ip), vehicle: carboxymethylcellulose (CMC) 92 % of control | [13] 90 % of control | [14] 95 % of control

CCCCOP(=O)(Nc1ccc([N+](=O)[O-])cc1)OCCCC
inactive: [15] 101 % of control | [16] 94 % of control | [17] 90 % of control

CN1C=CC(C(C(N)=O)c2ccccc2)c2ccccc21 (stereo not given)
inactive: [2] 95 % of control | [3] 92 % of control | [4] 92 % of control

O=C(NCCCOc1ccccc1)NCCc1ccc(Cl)c(Cl)c1
inactive: dose: 100.0 mg/kg/injection, schedule: Q01DX001 (ip), vehicle: gum acacia 99 % of control | dose: 200.0 mg/kg/injection, schedule: Q01DX001 (ip), vehicle: gum acacia 94 % of control | dose: 400.0 mg/kg/injection, schedule: Q01DX001 (ip), vehicle: gum acacia 91 % of control

CC(=O)Nc1cc2c(cc1Cl)-c1ccccc1C2Br (stereo not given)
inactive: [6] 96 % of control | [8] 94 % of control | [10] 96 % of control

CCCCNC(=O)NNC(=O)CCCC(=O)NNC(=O)NCCCC
inactive: dose: 50.0 mg/kg/injection, schedule: Q01DX001 (ip), vehicle: saline 100 % of control | [5] 93 % of control | [7] 100 % of control

O=C(N=P(c1ccccc1)(c1ccccc1)c1ccccc1)c1ccccc1
inactive: [5] 94 % of control | [7] 100 % of control | [9] 96 % of control

O=C1O/C(=C\c2ccccc2)c2ccccc21
inactive: [5] 101 % of control | [2] 94 % of control | [7] 94 % of control | [3] 97 % of control | [9] 99 % of control | [4] 94 % of control

CC(=O)[O][Sn]([CH2]c1ccccc1)([CH2]c1ccccc1)[O]C(C)=O
inactive: dose: 100.0 mg/kg/injection, schedule: Q01DX009 (ip), vehicle: other 109 % of control | dose: 100.0 mg/kg/injection, schedule: Q04DX003 (ip), vehicle: other 92 % of control | dose: 200.0 mg/kg/injection, schedule: Q01DX009 (ip), vehicle: other 98 % of control | dose: 200.0 mg/kg/injection, schedule: Q04DX003 (ip), vehicle: other 97 % of control | dose: 400.0 mg/kg/injection, schedule: Q01DX009 (ip), vehicle: other 95 % of control | dose: 400.0 mg/kg/injection, schedule: Q04DX003 (ip), vehicle: other 95 % of control

Cc1ccccc1S(=O)(=O)Cc1cc(Cl)cc(Cl)c1O
inactive: [5] 90 % of control | [7] 88 % of control | [9] 97 % of control
